Experimental data from patent US20130064794A1, “Substituted Carbonyloxymethylphosphoramidate Compounds and Pharmaceutical Compositions for the Treatment of Viral Infections” (IDENIX PHARMACEUTICALS, INC., priority 2011, published 2013).
Where two headings read alike, the source gives them in different places.

Experiments:
[1] = test system: mouse hepatocytes; assay: Release of active metabolite in mouse hepatocytes; format: in vitro ADME; details: 10 μM test compound
Procedure: Plates of fresh human and mouse hepatocytes were obtained on ice. The medium was removed and replaced with hepatocyte culture medium (William's E supplemented with penicillin-streptomycin, 1% L-glutamine, 1% insulin-transferrin-selenium and 0.1 μM Dexamethasone (Invitrogen) or with Invitro GRO HI medium complemented with Torpedo antibiotics (Celsis)). Cells were left overnight in an incubator at 37° C. to acclimatize to culture and the medium.
Hepatocyte incubations were conducted at a final volume of 0.5 mL hepatocyte culture medium/well (0.8 million cells/well for human and 0.5 million cells/well for mouse; 12 well plate no overlay, collagen coat). Culture medium from overnight incubation of cells was removed and replaced with fresh medium, pre-warmed to 37° C., containing 10 μM of the test compound from a stock solution in DMSO (final DMSO concentration was 0.1%). At each specific time point, incubation medium was removed and cell monolayers were carefully washed two times with ice-cold PBS. Following the last wash, all PBS was carefully removed and 1.0 mL of extraction solution (ice-cold 70% methanol/30% water) added. Cells were scraped off and suspended in the extraction solution, transferred to 2 mL polypropylene microfuge tubes and intracellular contents extracted overnight at −20° C.
After the overnight treatment the cellular extracts were prepared by centrifugation at 16,000×g for 10 min to remove cellular debris. The remaining sample was then dried using a refrigerated centrivap concentrator. Dry extracts were reconstituted in 1000 μL of HPLC-grade water and centrifuged at 16,000×g for 10 min. Aliquots (100 μL each) of the supernatant were transferred into a 96 well plate and 2′-C-methyl-adenosine 5′-triphosphate, trisodium salt (4 ng/mL final concentration) was added as the internal standard (1S) for LC-MS/MS analysis.
The incubation time points were 6, 24 and 48 hours for human hepatocytes and 1, 4, 8, 12 and 24 hours for mouse hepatocytes.

[2] = Stability in HIS9 (intestinal S9); format: in vitro ADME, human; details: 10 μM, 1.0 mg/mL protein, NADPH, 60 min
Procedure: HLM=Human liver microsome; HIM=Human intestinal microsome; HLS9=Human liver S9 fraction; HIS9=Human […] S9 fraction; SGF=Simulated gastric fluid; SIF=Simulated intestinal fluid.
(§1) Stability of Compound 1 and its diastereomer were determined in subcellular fractions (microsomes and S9) of human liver and intestine in duplicate for each matrix. Pooled liver and intestinal microsomal, intestinal and liver S9 proteins (1.0 mg/mL), suspended in incubation buffer (100 mM potassium phosphate, pH 7.4, 5 mM MgCl2, and 0.1 mM EDTA), were preincubated for 5 min at 37° C. with 10 μM of a test compound from a 10 mM stock solution in DMSO (final DMSO concentration was 0.1%); the reaction was initiated by the addition of NADPH (3 mM final concentration). At specific times (0 and 60 min), 0.1 mL samples were taken and the reaction terminated by the addition of 4 volumes of stop solution (acetonitrile with 500 ng/mL carbutamide as an internal standard). The samples were vortexed for 30 sec and then centrifuged at 16,000 g for 10 min. 100 μL of supernatants were transferred to 96 deep-well plates preloaded with 100 μL distilled water and analyzed after mixing by LC-MS/MS. The MS peak area ratio of the test compound versus the internal standard was calculated and percent unchanged test compound over 60 minutes was calculated using this ratio.

[3] = test system: HCV genotype 1b replicon; assay: microbe, parasite or virus in culture; format: cell-based; details: read-out: HCV Replicon EC50
Procedure: Huh-7-derived cell line (Zluc) that harbors an HCV genotype 1b replicon and a luciferase reporter gene was grown in Dulbecco's Modified Eagle Medium (DMEM) supplemented with 10% fetal bovine serum, 2 mM GlutaMAX, 1% MEM nonessential amino acids, 100 IU/mL penicillin, 100 μg/mL streptomycin, and 0.5 mg/mL Geneticin® (G418). For dose response testing the cells were seeded in 96-well plates at 7.5×10^3 cells per well in a volume of 50 μL, and incubated at 37° C./5% CO2. Drug solutions were made up freshly in Huh-7 media as 2× stocks. Ten additional 5-fold dilutions were prepared from these stocks in DMEM without G418. At least three hours after Zluc cells were seeded, drug treatment was initiated by adding 50 μL of drug dilutions to the plates in duplicate. […] Cells were then incubated at 37° C./5% CO2. Alternatively compounds were tested at two concentrations (10 nM and 100 nM). […] For this, media was removed from the plates via gentle tapping. Fifty microliters of ONE-glo luciferase assay reagent was added to each well. […] The EC50 values were calculated from dose response curves from the resulting best-fit equations determined by Microsoft Excel and XLfit 4.1 software.

[4] = Stability in human intestinal microsomes (HIM); format: in vitro ADME; details: 10 μM, 1.0 mg/mL protein, NADPH, 60 min
Procedure: as §1

[5] = Stability in human liver microsomes (HLM); format: in vitro ADME; details: 10 μM, 1.0 mg/mL protein, NADPH, 60 min
Procedure: as §1

Row | Structure (SMILES) | MsH AUC [1] [pmol.hr/mill cells] | MsH Cmax [1] [pmol/mill cells] | Percent Remaining, HIS9 (1 hr) [2] [%] | EC50 ([3]; Hepatitis C virus, 72 h) [µM] | Percent Remaining, HIM (1 hr) [4] [%] | Percent Remaining, HLM (1 hr) [5] [%] | EC50 ([3]; Zluc cells, HCV genotype 1b replicon, luciferase, 72 hours of incubation) [µM]
1 | CCOC(=O)OC(C)OP(=O)(N[C@@H](C)C(=O)OC(C)C)OC[C@H]1O[C@@H](n2cnc3c(OC)nc(N)nc32)[C@](C)(F)[C@@H]1O (single isomer, unassigned) [Compound 14] | 8704 | 7534 | 53 | < 0.1 | 41 | 0 | –
2 | CCOC(=O)OC(C)OP(=O)(N[C@@H](C)C(=O)OC(C)C)OC[C@H]1O[C@@H](n2cnc3c(OC)nc(N)nc32)[C@](C)(F)[C@@H]1O (single isomer, unassigned) [Compound 15] | 218 | 216 | 76 | – | 54 | 0 | < 0.1
